Assay results published in publication PMC2993883 (Journal of Neural Transmission, 2010).

Columns and labels:
Assay in all cases: IMAP fluorescence polarization PDE assay, 8-point IC50
Type in all cases: biochemical
PDE-10A1 = PDE-10A1 (Homo sapiens, UniProt Q9Y233)
PDE-3A = PDE-3A (Homo sapiens, UniProt Q14432)
PDE-4A1 = PDE-4A1 (Homo sapiens, UniProt P27815)
PDE-2A3 = PDE-2A3 (Homo sapiens, UniProt O00408)
Sequence of PDE-2A3 (O00408 2-941): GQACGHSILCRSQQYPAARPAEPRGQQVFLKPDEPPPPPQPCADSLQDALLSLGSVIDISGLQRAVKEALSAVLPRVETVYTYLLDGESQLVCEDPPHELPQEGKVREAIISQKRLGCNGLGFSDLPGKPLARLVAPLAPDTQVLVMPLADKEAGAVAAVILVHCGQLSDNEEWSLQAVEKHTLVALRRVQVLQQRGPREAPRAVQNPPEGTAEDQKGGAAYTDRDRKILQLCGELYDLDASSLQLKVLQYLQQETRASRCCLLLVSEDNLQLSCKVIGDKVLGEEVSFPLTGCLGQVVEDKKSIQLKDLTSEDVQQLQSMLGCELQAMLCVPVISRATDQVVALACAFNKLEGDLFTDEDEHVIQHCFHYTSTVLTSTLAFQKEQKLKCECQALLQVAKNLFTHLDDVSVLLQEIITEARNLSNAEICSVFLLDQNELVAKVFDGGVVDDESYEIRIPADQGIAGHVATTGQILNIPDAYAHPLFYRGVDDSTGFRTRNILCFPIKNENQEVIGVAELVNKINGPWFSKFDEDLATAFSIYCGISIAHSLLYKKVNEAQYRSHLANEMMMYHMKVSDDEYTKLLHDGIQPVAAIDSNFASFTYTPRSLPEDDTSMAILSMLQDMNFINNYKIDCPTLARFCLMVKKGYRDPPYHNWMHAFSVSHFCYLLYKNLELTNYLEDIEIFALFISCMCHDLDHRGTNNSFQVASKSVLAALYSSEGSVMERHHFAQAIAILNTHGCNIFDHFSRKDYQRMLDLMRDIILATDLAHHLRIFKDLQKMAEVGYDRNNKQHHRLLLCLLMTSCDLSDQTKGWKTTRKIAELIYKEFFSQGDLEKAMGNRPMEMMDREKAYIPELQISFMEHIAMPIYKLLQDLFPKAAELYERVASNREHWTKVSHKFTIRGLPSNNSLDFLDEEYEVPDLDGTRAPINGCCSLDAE

Sequence of PDE-4A1 (P27815 265-886 limits assumed): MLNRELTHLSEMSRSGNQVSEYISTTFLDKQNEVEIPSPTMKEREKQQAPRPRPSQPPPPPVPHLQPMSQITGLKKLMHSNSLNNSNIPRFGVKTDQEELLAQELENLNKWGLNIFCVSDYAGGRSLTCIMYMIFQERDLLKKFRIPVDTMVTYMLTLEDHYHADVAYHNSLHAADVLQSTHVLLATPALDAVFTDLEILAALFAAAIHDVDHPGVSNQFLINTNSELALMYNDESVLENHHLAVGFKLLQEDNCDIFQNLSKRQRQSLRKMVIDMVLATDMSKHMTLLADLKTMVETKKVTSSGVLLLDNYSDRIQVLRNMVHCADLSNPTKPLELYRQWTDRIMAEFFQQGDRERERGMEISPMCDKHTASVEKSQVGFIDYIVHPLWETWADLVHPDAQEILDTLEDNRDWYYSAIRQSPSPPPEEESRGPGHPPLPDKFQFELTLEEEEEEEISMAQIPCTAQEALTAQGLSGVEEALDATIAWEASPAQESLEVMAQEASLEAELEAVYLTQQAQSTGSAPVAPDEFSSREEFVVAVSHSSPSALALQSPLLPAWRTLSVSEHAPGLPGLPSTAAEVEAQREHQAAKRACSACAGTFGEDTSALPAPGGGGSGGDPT
Sequence of PDE-3A (Q14432 whole entry): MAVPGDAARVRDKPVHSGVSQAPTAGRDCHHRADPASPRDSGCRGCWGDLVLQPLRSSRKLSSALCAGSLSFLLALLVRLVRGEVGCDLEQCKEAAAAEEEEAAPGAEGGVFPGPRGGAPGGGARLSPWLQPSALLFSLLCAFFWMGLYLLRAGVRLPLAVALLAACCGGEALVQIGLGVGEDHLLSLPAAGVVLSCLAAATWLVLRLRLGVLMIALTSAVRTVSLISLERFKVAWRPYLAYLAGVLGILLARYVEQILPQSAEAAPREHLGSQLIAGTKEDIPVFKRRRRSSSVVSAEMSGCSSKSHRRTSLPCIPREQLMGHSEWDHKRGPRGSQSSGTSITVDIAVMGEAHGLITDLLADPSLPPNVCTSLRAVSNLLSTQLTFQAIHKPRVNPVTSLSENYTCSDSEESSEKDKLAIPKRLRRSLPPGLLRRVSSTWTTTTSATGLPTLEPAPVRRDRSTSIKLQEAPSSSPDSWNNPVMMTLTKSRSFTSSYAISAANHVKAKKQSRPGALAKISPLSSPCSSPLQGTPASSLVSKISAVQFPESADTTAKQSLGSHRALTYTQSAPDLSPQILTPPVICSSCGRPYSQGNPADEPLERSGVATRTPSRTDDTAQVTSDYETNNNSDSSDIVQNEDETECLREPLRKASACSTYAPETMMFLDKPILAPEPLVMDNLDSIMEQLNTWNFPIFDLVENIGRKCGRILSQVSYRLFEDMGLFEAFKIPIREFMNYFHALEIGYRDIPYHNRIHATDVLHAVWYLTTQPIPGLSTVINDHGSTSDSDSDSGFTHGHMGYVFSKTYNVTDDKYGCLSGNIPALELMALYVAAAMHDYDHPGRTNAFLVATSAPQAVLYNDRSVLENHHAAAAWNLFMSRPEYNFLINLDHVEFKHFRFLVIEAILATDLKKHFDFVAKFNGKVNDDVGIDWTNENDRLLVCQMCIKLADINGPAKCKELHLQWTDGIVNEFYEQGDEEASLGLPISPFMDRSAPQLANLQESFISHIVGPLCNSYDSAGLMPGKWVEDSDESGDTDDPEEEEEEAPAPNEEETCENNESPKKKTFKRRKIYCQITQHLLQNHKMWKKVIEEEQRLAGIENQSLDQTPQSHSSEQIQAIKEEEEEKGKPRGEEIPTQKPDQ
Sequence of PDE-10A1 (Q9Y233 1-779 isoform Q9Y233-1): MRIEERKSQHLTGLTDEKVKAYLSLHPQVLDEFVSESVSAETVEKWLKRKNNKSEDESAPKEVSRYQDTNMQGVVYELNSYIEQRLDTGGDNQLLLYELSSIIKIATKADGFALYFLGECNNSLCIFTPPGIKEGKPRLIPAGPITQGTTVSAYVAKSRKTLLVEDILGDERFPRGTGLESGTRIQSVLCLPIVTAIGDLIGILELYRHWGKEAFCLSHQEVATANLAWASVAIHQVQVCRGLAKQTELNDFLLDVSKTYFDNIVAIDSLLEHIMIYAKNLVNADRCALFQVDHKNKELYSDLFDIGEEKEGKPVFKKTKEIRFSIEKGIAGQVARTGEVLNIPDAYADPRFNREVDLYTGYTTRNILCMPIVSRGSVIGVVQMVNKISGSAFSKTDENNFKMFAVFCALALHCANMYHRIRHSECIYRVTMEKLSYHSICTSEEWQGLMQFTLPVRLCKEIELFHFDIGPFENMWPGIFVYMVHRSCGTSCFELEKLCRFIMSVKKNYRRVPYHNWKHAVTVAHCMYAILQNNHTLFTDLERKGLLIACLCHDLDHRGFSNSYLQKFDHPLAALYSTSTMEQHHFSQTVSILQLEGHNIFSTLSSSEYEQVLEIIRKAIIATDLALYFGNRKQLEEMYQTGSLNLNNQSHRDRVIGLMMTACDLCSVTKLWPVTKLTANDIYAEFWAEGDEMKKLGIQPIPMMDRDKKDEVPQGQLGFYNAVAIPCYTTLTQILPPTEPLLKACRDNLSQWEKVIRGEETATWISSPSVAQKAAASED

## CCC1C(C)=NN=C(c2ccc(OC)c(OC)c2)c2cc(OC)c(OC)cc21 (racemic) [tofisopam, 1-(3,4-dimethoxyphenyl)-5-ethyl-7,8-dimethoxy-4-methyl-5H-2,3-benzodiazepine]
PDE-10A1
  IC50: 920 nM
PDE-3A
  IC50: 1980 nM
PDE-4A1
  IC50: 420 nM
PDE-2A3
  IC50: 2110 nM
